Assay results: patent US11697648B2, “Fused pyrimidine pyridinone compounds as JAK inhibitors” (THERAVANCE BIOPHARMA R&D IP, LLC, priority 2019, dated 2023)

What was measured:
[1] = Colon and plasma mouse pharmacokinetics; format: in vivo; conditions: mouse, colon tissue / plasma; male Balb/c mice, 10 mg/kg PO; ratio of the colon AUC to the plasma AUC
Summary of the method: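 Male Balb/c mice given 10 mg/kg PO in 1% HPMC + 0.1% Tween-80; plasma, colon tissue and colon contents taken at 0.5, 2 and 6 h, quantified by LC/MS/MS. Non-compartmental analysis on means of 2 animals/time point; colon:plasma ratio taken as colon AUC over plasma AUC.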

[2] = tested on: oxazolone-induced colitis; experiment: Mouse model of oxazolone-induced colitis; format: in vivo, BALB/C mice
Description: Assay 6: Mouse Model of Oxazolone-Induced Colitis
Oxazolone-induced colitis is an experimental model that has a histological resemblance to human ulcerative colitis (Heller et al. Immunology, 2002, 17, 629-638). Adult BALB/C mice from Harlan were used in the assay. On day 1, animals were lightly anesthetized with isoflurane and the hairs between the shoulder were carefully removed before oxazolone (4%, 150 μL, 4:1 acetone: olive oil formulation) or vehicle solution was slowly applied for skin sensitization. Seven days after skin sensitization, the mice were fasted around 6 hours prior, anesthetized with ketamine/xylazine injection, and a 1 mL syringe equipped with a 3.5-F catheter, filled with oxazolone solution, was inserted carefully about 4 cm into the colon of the mouse. Following insertion, 50 μL of the oxazolone solution (0.8% in 1:1 ethanol:water formulation) was injected very slowly (over 30 sec using an injection pump) into the colon. Drug treatment (PO, QD or BID or TID) or vehicle was initiated a day prior to the oxazolone intrarectal (IR) challenge. Two-day post oxazolone intrarectal challenge, the disease was assessed by treatment-blinded experimenters for each mouse according to the criteria score: stool consistency score (0, normal; 2, loose; 4, diarrhea), gross bleeding score (0, absence; 2, blood tinged; 4, presence); Combined stool score endpoint=stool consistency score+stool blood score.
Select compounds were tested in the assay.

Caco-2 cell monolayers = experiment: Caco-2 permeation assay; format: in vitro ADME; conditions: 5 μM, A-B direction, with Verapamil (25 μM)
Summary of the method: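 Passive A-to-B permeability with P-gp inhibited by verapamil (25 μM); compound at 5 μM, n=2. Both compartments sampled at t0 and t120 and quantified by LC-MS/MS, giving apparent permeability in cm/sec from flux, area and concentration.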

JAK3 = JAK3 (Homo sapiens (Human), UniProt P52333); experiment: Biochemical JAK3 kinase assay (LanthaScreen); conditions: for JAK3 (pKi)-JAK1 (pKi): selectivity JAK3 over JAK1, difference of pKi
Summary of the method: (§1)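 GST-JAK + GFP-STAT1 peptide, HEPES pH 7.5/MgCl2/EGTA/Brij-35 buffer; cpd preincubation 1 h RT; ATP start, 1 h RT; stop with 10 mM EDTA + 2 nM Tb-anti-pSTAT1; TR-FRET 520/495. 4-parameter IC50 → pKi (Cheng-Prusoff).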

JAK2 = JAK2 (Homo sapiens (Human), UniProt O60674); experiment: Biochemical JAK2 kinase assay (LanthaScreen)
Summary of the method: as §1

Sequence of JAK3 (P52333 whole entry): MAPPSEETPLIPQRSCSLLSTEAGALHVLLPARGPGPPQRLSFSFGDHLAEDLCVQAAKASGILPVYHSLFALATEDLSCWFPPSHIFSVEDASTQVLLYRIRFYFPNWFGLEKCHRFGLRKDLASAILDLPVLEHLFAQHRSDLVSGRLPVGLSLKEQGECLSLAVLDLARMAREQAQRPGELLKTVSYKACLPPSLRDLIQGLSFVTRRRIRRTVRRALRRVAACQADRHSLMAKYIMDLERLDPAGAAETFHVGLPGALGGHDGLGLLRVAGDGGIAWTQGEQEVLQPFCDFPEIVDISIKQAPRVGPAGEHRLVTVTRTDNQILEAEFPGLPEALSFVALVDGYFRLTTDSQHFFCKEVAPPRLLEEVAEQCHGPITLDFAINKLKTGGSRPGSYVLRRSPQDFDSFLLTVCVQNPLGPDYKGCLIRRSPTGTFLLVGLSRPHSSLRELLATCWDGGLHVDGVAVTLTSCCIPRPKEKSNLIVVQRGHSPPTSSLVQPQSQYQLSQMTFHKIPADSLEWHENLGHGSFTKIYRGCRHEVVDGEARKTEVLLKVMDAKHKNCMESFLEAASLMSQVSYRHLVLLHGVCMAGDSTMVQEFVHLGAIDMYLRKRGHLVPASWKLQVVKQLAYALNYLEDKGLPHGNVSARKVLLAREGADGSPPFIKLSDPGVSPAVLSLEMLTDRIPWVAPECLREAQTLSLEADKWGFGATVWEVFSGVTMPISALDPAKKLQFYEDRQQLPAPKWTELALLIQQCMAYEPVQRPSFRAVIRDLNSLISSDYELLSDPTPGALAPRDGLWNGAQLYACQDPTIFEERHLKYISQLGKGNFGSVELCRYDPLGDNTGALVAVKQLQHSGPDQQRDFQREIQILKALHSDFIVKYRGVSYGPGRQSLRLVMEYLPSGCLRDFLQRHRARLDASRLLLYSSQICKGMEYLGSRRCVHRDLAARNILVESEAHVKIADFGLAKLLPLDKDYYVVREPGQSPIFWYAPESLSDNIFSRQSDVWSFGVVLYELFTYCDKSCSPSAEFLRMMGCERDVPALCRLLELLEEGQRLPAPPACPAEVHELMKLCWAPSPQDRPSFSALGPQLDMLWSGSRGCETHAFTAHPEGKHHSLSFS
Sequence of JAK2 (O60674 whole entry): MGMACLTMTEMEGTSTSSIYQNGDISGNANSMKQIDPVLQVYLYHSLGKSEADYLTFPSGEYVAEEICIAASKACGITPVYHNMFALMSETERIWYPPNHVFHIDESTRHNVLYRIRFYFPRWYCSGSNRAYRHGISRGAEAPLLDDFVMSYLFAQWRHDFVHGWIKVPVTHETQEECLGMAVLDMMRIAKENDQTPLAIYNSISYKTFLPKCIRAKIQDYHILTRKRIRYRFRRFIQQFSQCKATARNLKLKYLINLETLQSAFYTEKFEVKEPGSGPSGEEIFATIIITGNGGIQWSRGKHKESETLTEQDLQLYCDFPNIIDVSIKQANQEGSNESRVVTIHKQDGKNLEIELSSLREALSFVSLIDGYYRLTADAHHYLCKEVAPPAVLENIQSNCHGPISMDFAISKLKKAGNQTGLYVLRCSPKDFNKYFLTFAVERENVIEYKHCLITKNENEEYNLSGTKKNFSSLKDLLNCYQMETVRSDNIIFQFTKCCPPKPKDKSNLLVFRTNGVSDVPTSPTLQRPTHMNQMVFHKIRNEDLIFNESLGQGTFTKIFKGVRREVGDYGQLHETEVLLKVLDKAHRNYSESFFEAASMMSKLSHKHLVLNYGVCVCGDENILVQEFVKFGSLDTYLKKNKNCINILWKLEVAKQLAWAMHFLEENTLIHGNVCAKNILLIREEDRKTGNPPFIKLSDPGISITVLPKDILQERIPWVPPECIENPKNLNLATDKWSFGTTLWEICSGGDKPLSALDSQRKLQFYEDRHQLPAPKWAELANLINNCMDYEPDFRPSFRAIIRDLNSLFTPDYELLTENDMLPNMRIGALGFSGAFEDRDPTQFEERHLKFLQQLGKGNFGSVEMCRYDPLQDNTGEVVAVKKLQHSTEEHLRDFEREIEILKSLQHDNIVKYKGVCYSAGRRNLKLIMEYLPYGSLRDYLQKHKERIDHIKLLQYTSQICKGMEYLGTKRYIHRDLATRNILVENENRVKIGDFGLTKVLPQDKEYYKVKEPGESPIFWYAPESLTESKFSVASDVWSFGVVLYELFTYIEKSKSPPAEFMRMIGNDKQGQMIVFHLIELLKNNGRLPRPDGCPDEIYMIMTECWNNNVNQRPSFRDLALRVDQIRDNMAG

Row | SMILES | Kp [1] | combined stool score endpoint as compared with vehicle treated animals ([2]; dose of 1 mg/kg (PO, BID)) | combined stool score endpoint as compared with vehicle treated animals ([2]; dose of 3 mg/kg (PO, BID)) | Caco Kp (Caco-2 cell monolayers) | JAK 3 (pKi) (JAK3) | JAK3 (pKi)-JAK1 (pKi) (JAK3) | JAK 2 (pKi) (JAK2)
1 | C=CC(=O)N1CCN(CCn2c(=O)ccc3cnc(Nc4ccc(N5CCN(C)CC5)cc4)nc32)CC1 [Example 1, 8-(2-(4-acryloylpiperazin-1-yl)ethyl)-2-((4-(4-methylpiperazin-1-yl)phenyl)amino)pyrido[2,3-d]pyrimidin-7(8H)-one] | > 1000 | statistically significant decrease | statistically significant decrease | B (B represents a value between 5×10^−6 and 10×10^−6 cm/sec) | B (B represents pKi value between 9 and 10 (Ki between 1 nM and 0.1 nM)) | A (A represents a value of 3 or above) | E (E represents a pKi value of 7 or below (Ki of 100 nM or above))
2 | C=CC(=O)N1CC(CCn2c(=O)ccc3cnc(Nc4cccc(N5CCN(C(=O)CCSC)CC5)c4)nc32)C1 [Example 7, 8-(2-(1-acryloylazetidin-3-yl)ethyl)-2-((3-(4-(3-(methylthio)propanoyl)piperazin-1-yl)phenyl)amino)pyrido[2,3-d]pyrimidin-7(8H)-one] | > 100 | statistically significant decrease | – | B (B represents a value between 5×10^−6 and 10×10^−6 cm/sec) | B (B represents pKi value between 9 and 10 (Ki between 1 nM and 0.1 nM)) | A (A represents a value of 3 or above) | E (E represents a pKi value of 7 or below (Ki of 100 nM or above))
3 | C=CC(=O)N1CC(CCn2c(=O)ccc3cnc(Nc4cccc(CN5CCN(C(=O)N(C)C)CC5)c4)nc32)C1 [Example 5, 4-(3-((8-(2-(1-acryloylazetidin-3-yl)ethyl)-7-oxo-7,8-dihydropyrido[2,3-d]pyrimidin-2-yl)amino)benzyl)-N,N-dimethylpiperazine-1-carboxamide] | > 100 | statistically significant decrease | statistically significant decrease | A (A represents a value below 5×10^−6 cm/sec) | A (A represents a pKi value≥10 (Ki≤0.1 nM)) | A (A represents a value of 3 or above) | E (E represents a pKi value of 7 or below (Ki of 100 nM or above))
4 | C=CC(=O)N1CC(CCn2c(=O)ccc3cnc(Nc4ccc(N5CCN(C(C)=O)CC5)cc4)nc32)C1 [Example 2, 2-((4-(4-acetylpiperazin-1-yl)phenyl)amino)-8-(2-(1-acryloylazetidin-3-yl)ethyl)pyrido[2,3-d]pyrimidin-7(8H)-one] | > 100 | statistically significant decrease | – | A (A represents a value below 5×10^−6 cm/sec) | A (A represents a pKi value≥10 (Ki≤0.1 nM)) | A (A represents a value of 3 or above) | E (E represents a pKi value of 7 or below (Ki of 100 nM or above))
5 | C=CC(=O)N1CC(CCn2c(=O)ccc3cnc(Nc4ccc(N5CCN(C(=O)CSC)CC5)cc4)nc32)C1 [Example 13, 8-(2-(1-acryloylazetidin-3-yl)ethyl)-2-((4-(4-(2-(methylthio)acetyl)piperazin-1-yl)phenyl)amino)pyrido[2,3-d]pyrimidin-7(8H)-one] | > 1000 | statistically significant decrease | statistically significant decrease | A (A represents a value below 5×10^−6 cm/sec) | B (B represents pKi value between 9 and 10 (Ki between 1 nM and 0.1 nM)) | A (A represents a value of 3 or above) | E (E represents a pKi value of 7 or below (Ki of 100 nM or above))
6 | C=CC(=O)N1CCN(CCn2c(=O)ccc3cnc(Nc4cnn(C)c4)nc32)[C@@H](CC)C1 [Example 12, (S)-8-(2-(4-acryloyl-2-ethylpiperazin-1-yl)ethyl)-2-((1-methyl-1H-pyrazol-4-yl)amino)pyrido[2,3-d]pyrimidin-7(8H)-one] | > 50 | statistically significant decrease | – | B (B represents a value between 5×10^−6 and 10×10^−6 cm/sec) | B (B represents pKi value between 9 and 10 (Ki between 1 nM and 0.1 nM)) | A (A represents a value of 3 or above) | E (E represents a pKi value of 7 or below (Ki of 100 nM or above))
7 | C=CC(=O)N1CCN(CCn2c(=O)ccc3cnc(Nc4ccc(N5CCN(C(=O)CCSC)CC5)cc4)nc32)CC1 [Example 4, 8-(2-(4-acryloylpiperazin-1-yl)ethyl)-2-((4-(4-(3-(methylthio)propanoyl)piperazin-1-yl)phenyl)amino)pyrido[2,3-d]pyrimidin-7(8H)-one] | > 1000 | statistically significant decrease | – | A (A represents a value below 5×10^−6 cm/sec) | B (B represents pKi value between 9 and 10 (Ki between 1 nM and 0.1 nM)) | A (A represents a value of 3 or above) | E (E represents a pKi value of 7 or below (Ki of 100 nM or above))
